Assay results published in patent publication US11583516B2, “Dash inhibitors, and uses related thereto” (Trustees of Tufts College, priority 2016, dated 2023).
Read-outs that look alike come from different tables or passages of the source.

Key:
RS4;11 cells = experiment: Cell line drug sensitivity (CellTiter-Glo); type: cell-based
rhabdomyosarcoma = conditions: established rhabdomyosarcoma, preclinical; cited from earlier work
G-CSF = experiment: Serum cytokine induction in mice (G-CSF screen); type: in vivo, BALB/c mice
Excerpt: No. MKC00B) • IL-18 (R&D Systems, Cat. […] Systems, Cat. No. […])

CT26 cells = experiment: CT26 cell viability; type: cell-based
RDES-1 cells = experiment: Cell line drug sensitivity (CellTiter-Glo); type: cell-based; conditions: 48 h
Experimental: (§1) SET-2, RS4;11, and SKM-1 cells were purchased from DSMZ. HL-60, MV4;11, OCI-AML2, NB4, MOLM-13, NOMO-1, DAOY, HEL, IMR-5, K562, Kasumi-1, ONS-76, RDES-1, and TC-71 cells were a gift from Alex Kentsis and verified using STR genotyping (Genetica). […] MCF-7, Jurkat, THP-1, U937, HL-60, MV4;11, OCI-AML2, NB4, MOLM-13, NOMO-1, HEL, K562, SET-2, RS4;11, SKM-1 and Kasumi-1 were grown in RPMI-1640 medium with 10% FBS. All cells were grown at 37° C. in a 5% CO2 incubator. Cell lines were tested for mycoplasma using the MycoAlert Mycoplasma Detection Kit (Lonza).
(§2) Cells were plated (2000 cells/well) in white, 384-well clear bottom plates using an EL406 Microplate Washer/Dispenser (BioTek) in 25 μL final volume of media. Compounds were added using a pintool (CyBio) and cells were incubated for 48 h at 37° C. Assay plates were then removed from the incubator and allowed to equilibrate to room temperature on the bench top before addition of 10 μL of CellTiter-Glo reagent (Promega) according to the manufacturer's instructions. Assay plates were shaken on an orbital shaker for 2 minutes and incubated at room temperature on the bench top for 10 minutes. Luminescence was then read using a Cytation 5 Cell Imaging Multi-Mode Reader (BioTek). (FIG. 6)

SKM-1 cells = experiment: Cell line drug sensitivity (CellTiter-Glo); type: cell-based
Experimental: as §1, §2

MCF7 cells = experiment: Cell line drug sensitivity (CellTiter-Glo); type: cell-based
Experimental: as §1, §2

U937 cells = experiment: Cell line drug sensitivity (CellTiter-Glo); type: cell-based
Experimental: as §1, §2

NOMO-1 cells = experiment: Cell line drug sensitivity (CellTiter-Glo); type: cell-based
Experimental: as §1, §2

DAOY cells = experiment: Cell line drug sensitivity (CellTiter-Glo); type: cell-based; conditions: 48 h
Experimental: as §1, §2

THP-1 cells = experiment: Cell line drug sensitivity (CellTiter-Glo); type: cell-based
Experimental: as §1, §2

K562 cells = experiment: Cell line drug sensitivity (CellTiter-Glo); type: cell-based
Experimental: as §1, §2

OCI-AML3 cells = experiment: Cell line drug sensitivity (CellTiter-Glo); type: cell-based
Experimental: as §1, §2

Jurkat cells = experiment: Cell line drug sensitivity (CellTiter-Glo); type: cell-based; conditions: 48 h
Experimental: as §1, §2

ONS-76 cells = experiment: Cell line drug sensitivity (CellTiter-Glo); type: cell-based
Experimental: as §1, §2

HL-60 cells = experiment: Cell line drug sensitivity (CellTiter-Glo); type: cell-based
Experimental: as §1, §2

IMR-5 cells = experiment: Cell line drug sensitivity (CellTiter-Glo); type: cell-based
Experimental: as §1, §2

Kasumi-1 cells = experiment: Cell line drug sensitivity (CellTiter-Glo); type: cell-based
Experimental: as §1, §2

MOLM-13 cells = experiment: Cell line drug sensitivity (CellTiter-Glo); type: cell-based
Experimental: as §1, §2

HEL cells = experiment: Cell line drug sensitivity (CellTiter-Glo); type: cell-based
Experimental: as §1, §2

HT-1080 cells = experiment: Cell line drug sensitivity (CellTiter-Glo); type: cell-based
Experimental: as §1, §2

SET-2 cells = experiment: Cell line drug sensitivity (CellTiter-Glo); type: cell-based
Experimental: as §1, §2

TC-71 cells = experiment: Cell line drug sensitivity (CellTiter-Glo); type: cell-based
Experimental: as §1, §2

KG-1 cells = experiment: Cell line drug sensitivity (CellTiter-Glo); type: cell-based
Experimental: as §1, §2

AML cell lines = experiment: AML cell line sensitivity, summary over the panel; type: cell-based; conditions: all of these lines
Experimental: as §1, §2

MV4;11 cells = experiment: Cell line drug sensitivity (CellTiter-Glo); type: cell-based; conditions: Homo sapiens, MV4-11, 48 h
NB4 cells = experiment: Cell line drug sensitivity (CellTiter-Glo); type: cell-based; conditions: Homo sapiens, NB-4, 48 h
[1] = MTD (survival) of ARI-4268; type: in vivo; conditions: without PGE2 inhibitor, compared with Val-boroPro
[2] = in comparison to Val-boroPro
MB49 tumor = experiment: MB49 efficacy studies; type: in vivo, C57BL/6 mice; conditions: MB49 model, truncated dosing schedules
PGE2 = experiment: Peritoneal PGE2 levels after dosing; type: in vivo; conditions: even at substantially higher doses than Val-boroPro

CC(C)(C)[C@H](N)C(=O)N1CCC[C@H]1B(O)O [ARI-4175, t-butylglycine-boroProline]
IC50 (RS4;11 cells; RS4;11, AML/B-ALL, 48 h, read-out: IC50): 0.096 µM | Anti-tumor activity (rhabdomyosarcoma): significant immune-dependent anti-tumor activity | Average [G-CSF] at 6 hrs (G-CSF; 20 μg/animal PO): 19000 pg/mL | Average [G-CSF] at 6 hrs (G-CSF; 20 μg/animal SC): 65000 pg/mL | EC50 (CT26 cells): > 1000 µM | IC50 (RDES-1 cells; RDES-1, Ewing's sarcoma, read-out: IC50): > 60 µM | IC50 (SKM-1 cells; SKM-1, AML M5, 48 h, read-out: IC50): 0.007 µM | IC50 (MCF7 cells; MCF7, Breast, 48 h, read-out: IC50): > 60 µM | IC50 (U937 cells; U937, AML/histiocytic lymphoma M5, 48 h, read-out: IC50): > 60 µM | IC50 (NOMO-1 cells; NOMO-1, AML M5, 48 h, read-out: IC50): 0.03 µM | IC50 (DAOY cells; DAOY, Medulloblastoma, read-out: IC50): > 60 µM | IC50 (THP-1 cells; THP-1, AML M5, 48 h, read-out: IC50): 0.023 µM | IC50 (K562 cells; K562, CML/Erythroleukemia, 48 h, read-out: IC50): > 60 µM | IC50 (OCI-AML3 cells; OCI-AML3, AML M4, 48 h, read-out: IC50): 0.019 µM | IC50 (Jurkat cells; T-ALL, read-out: IC50): > 60 µM | IC50 (ONS-76 cells; ONS-76, Medulloblastoma, 48 h, read-out: IC50): > 60 µM | IC50 (HL-60 cells; HL-60, AML M2, 48 h, read-out: IC50): 0.016 µM | IC50 (IMR-5 cells; IMR-5, Neuroblastoma, 48 h, read-out: IC50): > 60 µM | IC50 (Kasumi-1 cells; Kasumi-1, AML M2, 48 h, read-out: IC50): > 60 µM | IC50 (MOLM-13 cells; MOLM-13, AML M5, 48 h, read-out: IC50): 0.028 µM | IC50 (HEL cells; AML/Erythroleukemis M6, 48 h, read-out: IC50): > 60 µM | IC50 (HT-1080 cells; HT-1080, Fibrosarcoma, 48 h, read-out: IC50): > 60 µM | IC50 (SET-2 cells; SET-2, AML/MPN, 48 h, read-out: IC50): 0.002 µM | IC50 (TC-71 cells; TC-71, Ewing's sarcoma, 48 h, read-out: IC50): > 60 µM | IC50 (KG-1 cells; KG-1, AML M0, 48 h, read-out: IC50): 0.035 µM

CC1([C@H](N)C(=O)N2CCC[C@H]2B(O)O)CCCCC1 (relative stereo) [ARI-4175CH]
IC50 values over the sensitive AML cell lines (AML cell lines): low (single digit) nanomolar | IC50 (RS4;11 cells; Homo sapiens, RS4-11, 48 h): 0.013 µM | IC50 (MV4;11 cells): 0.003 µM | IC50 (NB4 cells): 0.003 µM | EC50 (CT26 cells; Mus musculus, CT26): > 1000 µM | IC50 (RDES-1 cells): > 60 µM | IC50 (SKM-1 cells; Homo sapiens, SKM-1, 48 h): 0.001 µM | IC50 (MCF7 cells; Homo sapiens, MCF7, 48 h): > 60 µM | IC50 (U937 cells; Homo sapiens, U-937, 48 h): > 60 µM | IC50 (NOMO-1 cells; Homo sapiens, NOMO-1, 48 h): 0.004 µM | IC50 (DAOY cells; Homo sapiens, Daoy): > 60 µM | IC50 (THP-1 cells; Homo sapiens, THP-1, 48 h): 0.006 µM | IC50 (K562 cells; Homo sapiens, K562, 48 h): > 60 µM | IC50 (OCI-AML3 cells; Homo sapiens, OCI-AML-3, 48 h): 0.003 µM | IC50 (Jurkat cells; Homo sapiens): > 60 µM | IC50 (ONS-76 cells; Homo sapiens, ONS-76, 48 h): > 60 µM | IC50 (HL-60 cells; Homo sapiens, HL-60, 48 h): 0.003 µM | IC50 (IMR-5 cells; Homo sapiens, IMR-5, 48 h): > 60 µM | IC50 (Kasumi-1 cells; Homo sapiens, Kasumi 1, 48 h): > 60 µM | IC50 (MOLM-13 cells; Homo sapiens, MOLM-13, 48 h): 0.006 µM | IC50 (HEL cells; Homo sapiens, 48 h): > 60 µM | IC50 (HT-1080 cells; Homo sapiens, HT-1080, 48 h): > 60 µM | IC50 (SET-2 cells; Homo sapiens, SET-2, 48 h): 0.001 µM | IC50 (TC-71 cells; TC-71, 48 h): > 60 µM | IC50 (KG-1 cells; Homo sapiens, KG-1, 48 h): 0.049 µM

CC(C)(F)[C@H](N)C(=O)N1CCC[C@H]1B(O)O (relative stereo) [ARI-4268]
MTD (survival) [1]: dramatically increased MTD (survival) without the need for a PGE2 inhibitor | Oral activity [2]: good oral activity—on par with highly orally active Val-boroPro | Antitumor activity (MB49 tumor): displays antitumor activity in the MB49 mouse tumor model at doses indicating improved therapeutic index | Peritoneal PGE2 levels (PGE2): does not induce peritoneal PGE2 levels to the same extent as Val-boroPro

N[C@H](C(=O)N1CCC[C@H]1B(O)O)C12CC3CC(CC(C3)C1)C2 (relative stereo) [ARI-5544, Gly(1-adamantyl)-boroPro]
IC50 values over the sensitive AML cell lines (AML cell lines): low (single digit) nanomolar | IC50 (MV4;11 cells): 0.002 µM | IC50 (NB4 cells): 0.003 µM | EC50 (CT26 cells; Mus musculus, CT26): > 100 µM | IC50 (RDES-1 cells): > 60 µM | IC50 (SKM-1 cells; Homo sapiens, SKM-1, 48 h): 0.0004 µM | IC50 (MCF7 cells; Homo sapiens, MCF7, 48 h): > 60 µM | IC50 (U937 cells; Homo sapiens, U-937, 48 h): > 60 µM | IC50 (NOMO-1 cells; Homo sapiens, NOMO-1, 48 h): 0.005 µM | IC50 (DAOY cells; Homo sapiens, Daoy): > 60 µM | IC50 (THP-1 cells; Homo sapiens, THP-1, 48 h): 0.005 µM | IC50 (K562 cells; Homo sapiens, K562, 48 h): > 60 µM | IC50 (OCI-AML3 cells; Homo sapiens, OCI-AML-3, 48 h): 0.002 µM | IC50 (Jurkat cells; Homo sapiens): > 60 µM | IC50 (ONS-76 cells; Homo sapiens, ONS-76, 48 h): > 60 µM | IC50 (HL-60 cells; Homo sapiens, HL-60, 48 h): 0.003 µM | IC50 (IMR-5 cells; Homo sapiens, IMR-5, 48 h): > 60 µM | IC50 (Kasumi-1 cells; Homo sapiens, Kasumi 1, 48 h): > 60 µM | IC50 (MOLM-13 cells; Homo sapiens, MOLM-13, 48 h): 0.005 µM | IC50 (HEL cells; Homo sapiens, 48 h): > 60 µM | IC50 (HT-1080 cells; Homo sapiens, HT-1080, 48 h): > 60 µM | IC50 (SET-2 cells; Homo sapiens, SET-2, 48 h): 0.0002 µM | IC50 (TC-71 cells; TC-71, 48 h): > 60 µM | IC50 (KG-1 cells; Homo sapiens, KG-1, 48 h): 0.005 µM
